# Patent US8841343B2, “Composition for repelling mosquitoes” (Bio & Hnt, Inc., priority 2006, dated 2014)
# System: Aedes aegypti
# Assay: Examination of repellent activity using skin test (treated human forearm in cage of about 100 mated female mosquitoes)
# Format: in vivo
# Details: for Effective repellency duration (hour) (mean ± standard deviation): maximum measurement time 12 hours
# Excerpt: Citronellic acid and geranic acid, which are used in the present invention, are commercially available or can directly be synthesized. In this embodiment, products of Aldrich Co. (product names are respectively Citronellic acid and Geranic acid) were purchased and used as citronellic acid and geranic acid. Purities of the above two compounds were examined using a gas chromatograph (GC) and a gas chromatograph-mass spectrometry (GC-MS). The compounds having purity of 99.5% or greater were only used. Respective ingredients of the above compounds were added to isopropyl alcohol of 91% to make test samples consisting of a solution in the concentration of 0.5 to 50%. The samples were used for mosquito repellent efficacy experiments.
# The test samples manufactured as above underwent repellent effective experiments with respect to Aedes which is a main mosquito group attacking human.
# In this embodiment, Aedes aegypti was used as test mosquitoes. The Aedes aegypti was supplied from Korea Research Institute of Bioscience and Biotechnology and reared indoor from generation to generation.
# The larvae of the Aedes aegypti were reared in a plastic container of 22×14×7 cm containing distilled water with small amount of one-to-one mixture of chicken feed and yeast. Fresh mosquito pupae were transferred into a paper cup containing water and then placed in a transparent rearing cage to emerge as adults. Here, the rearing cage was constructed with metal net. Males and females of the freshly emerged mosquitoes were transferred to a rearing cage at one-to-one ratio, and left for two or three days for mating. The female mosquitoes were then used for repellency tests. Eight percent (8%) sugar water was supplied for the adult mosquitoes. The following rearing conditions were maintained: light condition of 16 h:8 h (day:night), temperature of 27±2° C., and relative humidity of 80±10%.
# In order to examine effectiveness of the mosquito repellent of the prepared sample solutions, one (1) ml of a sample solution was uniformly applied, using a metal rod, on a forearm of a volunteer human test subject between wrist and elbow. Thereafter, the arm treated with the test solution was inserted in a bioassay cage, constructed with Plexiglass of 50×50×50 cm containing approximately 100 mated female mosquitoes. The number of mosquitoes trying to bite was recorded for three minutes in every thirty minutes for up to 4 hours or in every hour for up to 12 hours. The time required to get the arm bitten by two cumulative mosquitoes was regarded as effective repellency duration. A net window of 40×40 cm was present at each side and top of the Plexiglass bioassay cage to allow air ventilation. A 15×15 cm hole was prepared at the front side of the Plexiglass bioassay cage and a long net sleeve was attached to the hole so that the test arm could be put into the cage for repellency test.
# At the beginning of each repellency test, an arm treated with no solvent was placed in the bioassay cage containing mosquitoes, in order to examine blood feeding activity of the mated female test mosquitoes. The repellency tests with the test solutions were carried out only when the arm was bitten by at least two mosquitoes for initial three minutes.
# Repellent activity against Aedes was examined in accordance with the aforementioned method using the samples which respectively contain citronellic acid and geranic acid. Also, mosquito repellent activity was measured with solutions which contain DEET and Picadirin, wherein the DEET and Picadirin are commercially available mosquito repellents which are currently recommended by the Center for Disease Control of the United States.
# In Table 4 to Table 6, the repellent efficiency was calculated using the following Equation 1.
compound,measurement,setting,value
"CC(C)=CCCC(C)CC(=O)O (racemic) [Citronellic acid, citronellic acid]",Repellent efficiency (%) per time (minutes),"2% (0.05 mg/cm^3), 30 minutes",100%
same,Repellent efficiency (%) per time (minutes),"2% (0.05 mg/cm^3), 60 minutes",84.7%
same,Repellent efficiency (%) per time (minutes),"2% (0.05 mg/cm^3), 90 minutes",71.3%
same,Repellent efficiency (%) per time (minutes),"2% (0.05 mg/cm^3), 120 minutes",56.4%
same,Repellent efficiency (%) per time (minutes),"2% (0.05 mg/cm^3), 150 minutes",37.8%
same,Repellent efficiency (%) per time (minutes),"2% (0.05 mg/cm^3), 180 minutes",15.2%
same,Repellent efficiency (%) per time (minutes),"2% (0.05 mg/cm^3), 210 minutes",7.4%
same,Repellent efficiency (%) per time (minutes),"2% (0.05 mg/cm^3), 240 minutes",0%
same,Repellent efficiency (%) per time (minutes),"10% (0.25 mg/cm^3), 30 minutes",100%
same,Repellent efficiency (%) per time (minutes),"10% (0.25 mg/cm^3), 60 minutes",100%
same,Repellent efficiency (%) per time (minutes),"10% (0.25 mg/cm^3), 90 minutes",100%
same,Repellent efficiency (%) per time (minutes),"10% (0.25 mg/cm^3), 120 minutes",100%
same,Repellent efficiency (%) per time (minutes),"10% (0.25 mg/cm^3), 150 minutes",100%
same,Repellent efficiency (%) per time (minutes),"10% (0.25 mg/cm^3), 180 minutes",85.7%
same,Repellent efficiency (%) per time (minutes),"10% (0.25 mg/cm^3), 210 minutes",71.4%
same,Repellent efficiency (%) per time (minutes),"10% (0.25 mg/cm^3), 240 minutes",57.1%
same,Repellent efficiency (%) per time (hours),"15% (0.375 mg/cm^3), 1 hour",100%
same,Repellent efficiency (%) per time (hours),"15% (0.375 mg/cm^3), 2 hours",75%
same,Repellent efficiency (%) per time (hours),"15% (0.375 mg/cm^3), 3 hours",75%
same,Repellent efficiency (%) per time (hours),"15% (0.375 mg/cm^3), 4 hours",75%
same,Repellent efficiency (%) per time (hours),"15% (0.375 mg/cm^3), 5 hours",50%
same,Repellent efficiency (%) per time (hours),"15% (0.375 mg/cm^3), 6 hours",50%
same,Repellent efficiency (%) per time (hours),"15% (0.375 mg/cm^3), 7 hours",37.5%
same,Repellent efficiency (%) per time (hours),"15% (0.375 mg/cm^3), 8 hours",37.5%
same,Repellent efficiency (%) per time (hours),"15% (0.375 mg/cm^3), 9 hours",25%
same,Repellent efficiency (%) per time (hours),"30% (0.75 mg/cm^3), 1 hour",100%
same,Repellent efficiency (%) per time (hours),"30% (0.75 mg/cm^3), 2 hours",87.5%
same,Repellent efficiency (%) per time (hours),"30% (0.75 mg/cm^3), 3 hours",75%
same,Repellent efficiency (%) per time (hours),"30% (0.75 mg/cm^3), 4 hours",75%
same,Repellent efficiency (%) per time (hours),"30% (0.75 mg/cm^3), 5 hours",75%
same,Repellent efficiency (%) per time (hours),"30% (0.75 mg/cm^3), 6 hours",62.5%
same,Repellent efficiency (%) per time (hours),"30% (0.75 mg/cm^3), 7 hours",62.5%
same,Repellent efficiency (%) per time (hours),"30% (0.75 mg/cm^3), 8 hours",62.5%
same,Repellent efficiency (%) per time (hours),"30% (0.75 mg/cm^3), 9 hours",62.5%
same,Repellent efficiency (%) per time (hours),"30% (0.75 mg/cm^3), 10 hours",50%
same,Repellent efficiency (%) per time (hours),"30% (0.75 mg/cm^3), 11 hours",50%
same,Repellent efficiency (%) per time (hours),"30% (0.75 mg/cm^3), 12 hours",50%
same,Repellent efficiency (%) per time (hours),"50% (1.25 mg/cm^3), 1 hour",100%
same,Repellent efficiency (%) per time (hours),"50% (1.25 mg/cm^3), 2 hours",100%
same,Repellent efficiency (%) per time (hours),"50% (1.25 mg/cm^3), 3 hours",100%
same,Repellent efficiency (%) per time (hours),"50% (1.25 mg/cm^3), 4 hours",100%
same,Repellent efficiency (%) per time (hours),"50% (1.25 mg/cm^3), 5 hours",93.3%
same,Repellent efficiency (%) per time (hours),"50% (1.25 mg/cm^3), 6 hours",86.7%
same,Repellent efficiency (%) per time (hours),"50% (1.25 mg/cm^3), 7 hours",86.7%
same,Repellent efficiency (%) per time (hours),"50% (1.25 mg/cm^3), 8 hours",86.7%
same,Repellent efficiency (%) per time (hours),"50% (1.25 mg/cm^3), 9 hours",80%
same,Repellent efficiency (%) per time (hours),"50% (1.25 mg/cm^3), 10 hours",73.3%
same,Repellent efficiency (%) per time (hours),"50% (1.25 mg/cm^3), 11 hours",73.3%
same,Repellent efficiency (%) per time (hours),"50% (1.25 mg/cm^3), 12 hours",73.3%
same,repellency (in words),at the level of 0.0125 mg/cm^3,did not represent any repellency
same,time for which repellent efficiency of 100% was shown,at the level of 0.05 mg/cm^3,30 min
same,time for which repellent efficiency of 100% was shown,at the level of 0.25 mg/cm^3,150 min
same,Effective repellency duration (minute) (mean ± standard deviation),"concentration 0.5% (0.0125 mg/cm^3), time until arm bitten by two cumulative mosquitoes",0 ± 0 min
same,Effective repellency duration (minute) (mean ± standard deviation),"concentration 2% (0.05 mg/cm^3), time until arm bitten by two cumulative mosquitoes",60 ± 0 min
same,Effective repellency duration (minute) (mean ± standard deviation),"concentration 10% (0.25 mg/cm^3), time until two cumulative bites, maximum measurement time 240 minutes",240 ± 0 min
same,Effective repellency duration (minute) (mean ± standard deviation),"concentration 10% (0.25 mg/cm^3), time until two cumulative bites, maximum measurement time 240 minutes, listed as citronellic acid",240 min
same,Effective repellency duration (hour) (mean ± standard deviation),concentration 15% (0.375 mg/cm^3),5.7 ± 2.03 h
same,Effective repellency duration (hour) (mean ± standard deviation),concentration 30% (0.75 mg/cm^3),9.3 ± 1.76 h
same,Effective repellency duration (hour) (mean ± standard deviation),"concentration 30% (0.75 mg/cm^3), listed as citronellic acid",9.3 h
same,Effective repellency duration (hour) (mean ± standard deviation),concentration 50% (1.25 mg/cm^3),9.3 ± 1.76 h
same,Effective repellency duration (hour) (mean ± standard deviation),"concentration 50% (1.25 mg/cm^3), listed as citronellic acid",9.3 h
same,repellent efficiency,for 8 hours at the level of 1.25 mg/cm^3,~90%
